Reference: patent US6855329B1, “Surface coating spatially controlled patterns” (Massachusetts Institute of Technology, priority 1998, dated 2005)

What was measured:
[1] = cited from earlier work
[2] = system: smooth muscle cells, fibroblasts or platelets; settings: binds to the integrin on human endothelial cells; cited from earlier work
[3] = system: PC12 cells; settings: NGF-primed cells, 48hr
Procedure: (§1) A patterned polymer surface is prepared as described in Example 1;
(§2) Bovine aortic endothelial cells (BAECs) were maintained in low glucose Dulbecco's modifed Eagle's medium (DMEM) supplemented with 10% fetal bovine serum, 0.5% penicillin, 0.5% streptomycin and 1% L-glutamine in a humidified incubator at 37° C. and 5% CO2. Cells were passaged by trypsinisation before reaching confluence, usually every fifth day. Fresh media were added every other day. PC12 cells (ATCC CRL 1721) were grown in suspension culture in F-12K media supplemented with 15% horse serum, 2.5% fetal bovein serum, 0.5% penicillin, 0.5% streptomycin and 1% L-glutamine in a humidified incubator at 37° C. and 5% CO2. Cells were passaged 1:5 every third day. All cell culture reagents were obtained from Sigma unless otherwise stated.
(§3) BAECs between passages 7 and 9 were removed from tissue culture flasks by trypsinisation, pelleted by centrifugation, resuspended, washed three times and diluted to the appropriate concentration in serum-free MDEM. PC12 cells were primed with culture medium containing 50 ng/ml 7S nerve growth factor (NGF) 48 h prior to the experiment. The cells were pelleted by centrifugation, washed three times with serum-free F-12K medium, passed through a 22-guage needle to obtain a single cell suspension, and diluted to the appropriate concentration with serum-free. F-12K medium supplemented with 50ng/ml 7S NGF. For both cell types, approximately 10,000 cells/cm^2 were added to each sample and the plates returned to the incubator for the duration of the experiment (48hr). At the end point of the experiment, the samples were washed gently with PBS to remove unattached cells and visualised with a Nikon Diaphot TMD inverted microscope equipped with a Hitachi HV-C20 high resolution CCD video camera using phase contrast objectives. Images were digitised using NIH Image (v1.61) image analysis software. In addition, some BAEC samples were fixed in 10% neutral buffered formalin for 10 min, washed with water, and stained with hematoxylin for visualisation.

[4] = system: Bovine aortic endothelial cells (BAECs); settings: 48hr
Procedure: as §1, §2, §3

For CSRARKQAASIKVAVSADR, the water solubility [1] is given as “water soluble”.
In the case of IKVAV (SEQ ID NO:2), the water solubility [1] is listed as “not significantly water soluble”.
In the case of REDV (SEQ ID NO:4), the “adhesion or spreading of smooth muscle cells, fibroblasts or platelets” value [2] is given as “does not support adhesion or spreading”.
For “biotin-G5CSRARKQAASIKVAVSADR (SEQ ID NO:19)”, the “neurite outgrowth of PC12 cells on the micropattern” value ([3]; neurites restricted from crossing the line boundary) was “Directionally controlled neurite outgrowth was stimulated” and the “adherence of PC12 cells to functionalised lines” value ([3]; serum-free F-12K with 50ng/ml 7S NGF, only a small degree of cell adhesion between the lines) was “selective adherence”.
For biotin-G11 GRGDS (SEQ ID NO:18), the “cell adhesion to the 30 or 12 μm-wide lines” value ([4]; 30 or 12 μm-wide lines) was “little cell adhesion”, the “cell coverage of the 70 and 50 μm width lines” value ([4]; 70 and 50 μm width lines) was “Complete cell coverage” and the “adhesion and spreading of BAECs on functionalised lines” value ([4]; serum-free medium, approximately 10,000 cells/cm^2, no adhesion to unfunctionalised areas between the lines) was “adhered and spread”.
